Where two headings read alike, the source gives them in different places.
How the values were obtained:
Format in all cases: cell-based
[1] = target: T1, NR2F6 (Homo sapiens, UniProt P10588); test: NR2F6 agonist screening, Firefly signal cmpd/DMSO
T1 construct: expressed in transfected cells; also transient transfection
T1 sequence (P10588 1-404): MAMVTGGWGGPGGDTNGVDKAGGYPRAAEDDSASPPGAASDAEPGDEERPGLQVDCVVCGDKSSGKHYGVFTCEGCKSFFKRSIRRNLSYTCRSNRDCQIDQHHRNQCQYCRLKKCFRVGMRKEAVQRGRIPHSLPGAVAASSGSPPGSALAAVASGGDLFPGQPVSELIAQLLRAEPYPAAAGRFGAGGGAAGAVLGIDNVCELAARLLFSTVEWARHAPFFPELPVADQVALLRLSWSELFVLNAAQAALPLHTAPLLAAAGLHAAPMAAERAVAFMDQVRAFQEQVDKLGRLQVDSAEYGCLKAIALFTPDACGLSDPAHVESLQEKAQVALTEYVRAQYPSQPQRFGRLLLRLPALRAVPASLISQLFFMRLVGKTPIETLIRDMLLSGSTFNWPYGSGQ

[2] = target: T2, ERα (Homo sapiens, UniProt P03372); test: Counterscreening, Firefly signal with ERα transient transfection (Firefly_ERa); details: 10 uM
T2 construct: expressed in transfected cells
T2 sequence (P03372 1-595): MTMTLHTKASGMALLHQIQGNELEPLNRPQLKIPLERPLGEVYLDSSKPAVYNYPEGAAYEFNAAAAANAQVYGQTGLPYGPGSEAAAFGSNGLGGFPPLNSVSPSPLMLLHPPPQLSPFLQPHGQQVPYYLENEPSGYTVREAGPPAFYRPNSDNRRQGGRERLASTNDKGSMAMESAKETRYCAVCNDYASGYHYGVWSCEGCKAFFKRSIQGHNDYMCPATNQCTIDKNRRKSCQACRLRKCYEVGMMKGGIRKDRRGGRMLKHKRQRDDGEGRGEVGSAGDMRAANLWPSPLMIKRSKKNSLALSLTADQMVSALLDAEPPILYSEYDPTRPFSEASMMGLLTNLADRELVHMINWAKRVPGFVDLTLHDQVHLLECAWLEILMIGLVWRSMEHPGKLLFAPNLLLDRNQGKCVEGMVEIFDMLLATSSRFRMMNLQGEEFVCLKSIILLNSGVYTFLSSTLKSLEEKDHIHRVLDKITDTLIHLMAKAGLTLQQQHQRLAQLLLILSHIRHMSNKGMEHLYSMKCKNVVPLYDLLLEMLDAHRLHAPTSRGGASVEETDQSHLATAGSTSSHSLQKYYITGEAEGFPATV
Protocol: The methodology for screening candidate compounds as NR2F6 agonists was as follows: For primary screening, hit criteria was ACT %>DMSO control+5*SD (DSO control) at 10 μM, or any compound with S/B>2. For rescreening, hit criteria was ACT %>DMSO control+3*SD (DSO control) in each replicate at 10 μM. For counterscreening, hit criteria was mean ACT<DMSO control+3*SD (DMSO control) with ERα transient transfection in duplicate at 10 μM.

[3] = test system: Renilla; test: Renilla signal in NR2F6 agonist screening, cmpd/DMSO; details: for fold induction at 2 µM / fold induction at 10 µM / fold induction at 40 µM: Renilla, read-out: Renilla F4, cmpd/DMSO (mean)
[4] = test system: Renilla_ERa; test: Renilla signal in ERα counterscreen (Renilla_ERa); details: for fold induction at 2 µM / fold induction at 10 µM / fold induction at 40 µM: read-out: Renilla ERalpha transient, cmpd/DMSO (mean)
[5] = target: T2, ERα; test: Counterscreening, Firefly signal with ERα transient transfection (Firefly_ERa)

Row | SMILES | Firefly F4, cmpd/DMSO (mean) ([1]; 2 uM, clone F4) | Firefly F4, cmpd/DMSO (mean) ([1]; 10 uM, clone F4) | Firefly F4, cmpd/DMSO (mean) ([1]; 40 uM, clone F4) | Firefly ERalpha transient, cmpd/DMSO (mean) [2] | Firefly ERalpha transient, cmpd/DMSO (mean) ([5]; 2 uM) | Firefly ERalpha transient, cmpd/DMSO (mean) ([5]; 40 uM) | Firefly F4, cmpd/DMSO (mean) ([1]; Table 15, 2 uM) | Firefly F4, cmpd/DMSO (mean) ([1]; Table 15, 10 uM) | Firefly F4, cmpd/DMSO (mean) ([1]; Table 15, 40 uM) | Firefly ERalpha transient, cmpd/DMSO (mean) ([2]; Table 15) | Firefly ERalpha transient, cmpd/DMSO (mean) ([5]; Table 15, 2 uM) | Firefly ERalpha transient, cmpd/DMSO (mean) ([5]; Table 15, 40 uM) | fold induction at 2 µM ([3]; 2 uM, clone F4) | fold induction at 10 µM ([3]; 10 uM, clone F4) | fold induction at 40 µM ([3]; 40 uM, clone F4) | fold induction at 2 µM ([4]; 2 uM) | fold induction at 10 µM ([4]; 10 uM) | fold induction at 40 µM ([4]; 40 uM) | fold induction at 2 µM ([3]; Table 15, 2 uM) | fold induction at 10 µM ([3]; Table 15, 10 uM) | also measured
1 | CS(=O)(=O)Nc1ccc([N+](=O)[O-])c2nonc12 [Compound Z13] | – | – | – | – | – | – | 1.0 | 0.9 | 1.6 | 1.7 | 1.2 | 1.1 | – | – | – | – | – | – | – | – | Renilla F4, cmpd/DMSO (mean) ([3]; Table 15, 2 uM): 0.8; Renilla F4, cmpd/DMSO (mean) ([3]; Table 15, 10 uM): 0.7; Renilla F4, cmpd/DMSO (mean) ([3]; Table 15, 40 uM): 0.4; Renilla ERalpha transient, cmpd/DMSO (mean) ([4]; Table 15, 2 uM): 0.8; Renilla ERalpha transient, cmpd/DMSO (mean) ([4]; Table 15, 10 uM): 0.6; Renilla ERalpha transient, cmpd/DMSO (mean) ([4]; Table 15, 40 uM): 0.4
2 | COc1cccc(-c2noc(Cn3nccc(Cl)c3=O)n2)c1 [Compound Z3] | – | – | – | – | – | – | 1.5 | 1.1 | 1.6 | 2.6 | 2.2 | 1.7 | – | – | – | – | – | – | 1.5 | 1.4 | fold induction at 40 µM ([3]; Table 15, 40 uM): 0.9; fold induction at 2 µM ([4]; Table 15, 2 uM): 1.1; fold induction at 10 µM ([4]; Table 15, 10 uM): 1; fold induction at 40 µM ([4]; Table 15, 40 uM): 0.9
3 | Cc1cc(C)nc(Nc2nc(-c3ccccc3)c(CC(=O)O)s2)n1 [Compound 29] | 0.9 | 1.4 | 1.5 | 1.7 | 1.2 | 2.2 | – | – | – | – | – | – | 0.8 | 0.9 | 0.8 | 1.1 | 1 | 1.1 | – | – | –
4 | CC(C)Nc1nc(N2CCOCC2)nc(N2CCn3c(cccc3=O)C2)n1 [Compound 34] | 0.9 | 0.8 | 0.9 | 1.2 | 1.1 | 1.2 | – | – | – | – | – | – | – | – | – | – | – | – | – | – | Renilla F4, cmpd/DMSO (mean) ([3]; 2 uM, clone F4): 0.9; Renilla F4, cmpd/DMSO (mean) ([3]; 10 uM, clone F4): 1.1; Renilla F4, cmpd/DMSO (mean) ([3]; 40 uM, clone F4): 0.9; Renilla ERalpha transient, cmpd/DMSO (mean) ([4]; 2 uM): 1.0; Renilla ERalpha transient, cmpd/DMSO (mean) ([4]; 10 uM): 1.1; Renilla ERalpha transient, cmpd/DMSO (mean) ([4]; 40 uM): 1.1
5 | O=c1cccc2n1CC1CC2CN(c2nc(NCCC3=CCCCC3)nc(N3CCCC3)n2)C1 (stereo not shown) [Compound 32] | 0.8 | 1.3 | 0.8 | 1.2 | 1.2 | 0.7 | – | – | – | – | – | – | 1.2 | 1.4 | 1 | 1.2 | 1.3 | 1.1 | – | – | –
6 | CCOC(=O)c1cnc2c(C)cc(C)cc2c1NCc1ccc(Cl)cc1 [Compound Z75] | – | – | – | – | – | – | 0.9 | 1.2 | 0.8 | 1.9 | 1.1 | 0.9 | – | – | – | – | – | – | 1.1 | 1 | fold induction at 40 µM ([3]; Table 15, 40 uM): 0.8; fold induction at 2 µM ([4]; Table 15, 2 uM): 1; fold induction at 10 µM ([4]; Table 15, 10 uM): 0.9; fold induction at 40 µM ([4]; Table 15, 40 uM): 0.7
7 | O=c1cccc2n1CC1CC2CN(c2nc(Cl)nc(NCCN3CCOCC3)n2)C1 (stereo not shown) [Compound 27] | 1.0 | 1.0 | 1.0 | 1.2 | 1.2 | 1.2 | – | – | – | – | – | – | 0.9 | 0.9 | 0.8 | 1.1 | 1.1 | 1.2 | – | – | –

Second part, led by results:

Row | Firefly F4, cmpd/DMSO (mean) ([1]; 2 uM, clone F4) | Firefly F4, cmpd/DMSO (mean) ([1]; 10 uM, clone F4) | Firefly F4, cmpd/DMSO (mean) ([1]; 40 uM, clone F4) | Firefly ERalpha transient, cmpd/DMSO (mean) [2] | Firefly ERalpha transient, cmpd/DMSO (mean) ([5]; 2 uM) | Firefly ERalpha transient, cmpd/DMSO (mean) ([5]; 40 uM) | Firefly F4, cmpd/DMSO (mean) ([1]; Table 15, 2 uM) | Firefly F4, cmpd/DMSO (mean) ([1]; Table 15, 10 uM) | Firefly F4, cmpd/DMSO (mean) ([1]; Table 15, 40 uM) | Firefly ERalpha transient, cmpd/DMSO (mean) ([2]; Table 15) | Firefly ERalpha transient, cmpd/DMSO (mean) ([5]; Table 15, 2 uM) | Firefly ERalpha transient, cmpd/DMSO (mean) ([5]; Table 15, 40 uM) | SMILES | fold induction at 2 µM ([3]; 2 uM, clone F4) | fold induction at 10 µM ([3]; 10 uM, clone F4) | fold induction at 40 µM ([3]; 40 uM, clone F4) | fold induction at 2 µM ([4]; 2 uM) | fold induction at 10 µM ([4]; 10 uM) | fold induction at 40 µM ([4]; 40 uM) | fold induction at 2 µM ([3]; Table 15, 2 uM) | fold induction at 10 µM ([3]; Table 15, 10 uM) | also measured
8 | 0.9 | 1.0 | 0.8 | 1.0 | 1.0 | 0.7 | – | – | – | – | – | – | CCCCCCNc1nc(OCC)nc(N2CCn3c(cccc3=O)C2)n1 [Compound 40] | – | – | – | – | – | – | – | – | Renilla F4, cmpd/DMSO (mean) ([3]; 2 uM, clone F4): 1.1; Renilla F4, cmpd/DMSO (mean) ([3]; 10 uM, clone F4): 1.3; Renilla F4, cmpd/DMSO (mean) ([3]; 40 uM, clone F4): 1.0; Renilla ERalpha transient, cmpd/DMSO (mean) ([4]; 2 uM): 1.2; Renilla ERalpha transient, cmpd/DMSO (mean) ([4]; 10 uM): 1.2; Renilla ERalpha transient, cmpd/DMSO (mean) ([4]; 40 uM): 1.1
9 | 0.8 | 0.7 | 0.6 | 0.4 | 1.0 | 0.4 | – | – | – | – | – | – | N#CC1=C(N)n2nc(-c3ccccc3)cc2NC1(c1ccc(N2CCOCC2)cc1)C(F)(F)F (stereo not shown) [Compound Z49] | 1 | 0.7 | 0.8 | 1 | 0.7 | 0.8 | – | – | –
10 | – | – | – | – | – | – | 0.8 | 1.0 | 0.8 | 1.0 | 1.4 | 0.4 | CCOC(=O)c1cnc2c(C)cc(C)cc2c1NCCCOC [Compound Z71] | – | – | – | – | – | – | 1.1 | 0.9 | fold induction at 40 µM ([3]; Table 15, 40 uM): 0.4; fold induction at 2 µM ([4]; Table 15, 2 uM): 1; fold induction at 10 µM ([4]; Table 15, 10 uM): 1; fold induction at 40 µM ([4]; Table 15, 40 uM): 0.5
11 | 1.8 | 0.9 | 1.5 | 0.8 | 1.8 | 1.5 | – | – | – | – | – | – | Cc1cc(C)c2ncc(C(=O)N3CCCC3)c(NCCCN(C)C)c2c1 [Compound Z32] | 1 | 1 | 1.3 | 1 | 1.1 | 0.8 | – | – | –
12 | – | – | – | – | – | – | 1.5 | 0.9 | 1.2 | 2.5 | 2.4 | 2.4 | COc1cccc(-c2noc(Cn3ncccc3=O)n2)c1 [Compound Z5] | – | – | – | – | – | – | 1 | 0.9 | fold induction at 40 µM ([3]; Table 15, 40 uM): 1.2; fold induction at 2 µM ([4]; Table 15, 2 uM): 1; fold induction at 10 µM ([4]; Table 15, 10 uM): 1; fold induction at 40 µM ([4]; Table 15, 40 uM): 1
13 | 1.6 | 3.8 | 0.7 | 10.3 | 2.0 | 0.9 | – | – | – | – | – | – | CCOC(=O)c1cnc2cc(C)c(C)cc2c1NCCCN(C)C [Compound Z34] | 1.2 | 0.8 | 0.6 | 1.5 | 1 | 0.7 | – | – | activity (in words) ([1]; screening result): particularly good activity
